Measured values reported in PubChem BioAssay AID330 (DTP/NCI, 2004).
Where “and” joins values, the source holds several entries; their conditions need not be identical. Equal entries are not always repeated. Inconclusive results and toxic doses are left out. How the source made its calls: active means survival T/C of 150% or more; inactive means T/C below 125% in these data. Peptide text beside a SMILES is read from it. * marks the point of attachment. OtBu = CC(C)(C)O*

Test system: P388 leukemia ip, CD2F1 mice, survival T/C
Assay: NCI In Vivo Anticancer Drug Screen. Data for tumor model P388 Leukemia (intraperitoneal) in CD2F1 (CDF1) mice
Conditions: endpoint: median survival time, higher = longer survival
Method in brief: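 Mice carrying the transplanted tumor received test compound or vehicle. Survival was recorded in each group, and the value is the treated-group measurement divided by that of the vehicle-treated control group.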

[1] = dose: 60.0 mg/kg/injection, schedule: Q01DX005 (ip), vehicle: saline with Tween-80
[2] = dose: 120.0 mg/kg/injection, schedule: Q01DX005 (ip), vehicle: saline with Tween-80
[3] = dose: 240.0 mg/kg/injection, schedule: Q01DX005 (ip), vehicle: saline with Tween-80
[4] = dose: 50.0 mg/kg/injection, schedule: Q01DX009 (ip), vehicle: saline
[5] = dose: 100.0 mg/kg/injection, schedule: Q01DX009 (ip), vehicle: saline
[6] = dose: 200.0 mg/kg/injection, schedule: Q01DX009 (ip), vehicle: saline
[7] = dose: 50.0 mg/kg/injection, schedule: Q01DX005 (ip), vehicle: Klucel (hydroxypropylcellulose) (HPC)
[8] = dose: 100.0 mg/kg/injection, schedule: Q01DX005 (ip), vehicle: Klucel (hydroxypropylcellulose) (HPC)
[9] = dose: 200.0 mg/kg/injection, schedule: Q01DX005 (ip), vehicle: Klucel (hydroxypropylcellulose) (HPC)
[10] = dose: 50.0 mg/kg/injection, schedule: Q04DX003 (ip), vehicle: saline
[11] = dose: 100.0 mg/kg/injection, schedule: Q04DX003 (ip), vehicle: saline
[12] = dose: 50.0 mg/kg/injection, schedule: Q01DX005 (ip), vehicle: saline with Tween-80
[13] = dose: 50.0 mg/kg/injection, schedule: Q01DX005 (ip), vehicle: saline

Measured: T/C

O=C(Cc1nc2ccccc2[nH]c1=O)N/N=C/c1ccc2c(c1)CCC2
inactive: [1] 92 % of control and 95 % of control | [2] 100 % of control | [3] 89 % of control

C[C@@H]1C(N2CCCC2)=CC(=O)OC1c1ccccc1 (stereo partly drawn)
inactive: [1] 105 % of control | [2] 109 % of control | [3] 111 % of control

N=C(N)SCc1csc(N)n1
inactive: dose: 25.0 mg/kg/injection, schedule: Q01DX009 (ip), vehicle: saline 105 % of control | [4] 102 % of control | [5] 109 % of control | [6] 108 % of control

CCOP(=O)(Nc1ccc2c(c1)Cc1c-2cc(Br)c(NC(C)=O)c1Br)OCC
inactive: [7] 94 % of control | [8] 94 % of control | [9] 96 % of control

CC(C)CC(NC(=O)C(Cc1ccccc1)NC(=O)C1CCCN1)C(=O)OC(C)(C)C (stereo not drawn) (H-Pro-Phe-Leu-OtBu; configuration not given here)
inactive: [7] 102 % of control | [8] 94 % of control | [9] 94 % of control

C=C(OC1C=C(C(=O)O)C2OC2C1O)C(=O)O (stereo not drawn)
inactive: dose: 2.5 mg/kg/injection, schedule: Q01DX005 (ip), vehicle: saline 100 % of control | dose: 5.0 mg/kg/injection, schedule: Q01DX005 (ip), vehicle: saline 100 % of control | dose: 10.0 mg/kg/injection, schedule: Q01DX005 (ip), vehicle: saline 106 % of control | dose: 20.0 mg/kg/injection, schedule: Q01DX005 (ip), vehicle: saline 102 % of control | dose: 40.0 mg/kg/injection, schedule: Q01DX005 (ip), vehicle: saline 109 % of control

CC(=O)Nc1ccc(C(=O)c2ccccc2)cc1
inactive: dose: 25.0 mg/kg/injection, schedule: Q04DX003 (ip), vehicle: saline 102 % of control | [10] 103 % of control | [11] 100 % of control | dose: 200.0 mg/kg/injection, schedule: Q04DX003 (ip), vehicle: saline 103 % of control

COCC1OC(OC2C3=C(C(C)C)CCC3(C)/C=C3\C(CCC3(O)COC)C(C)C2O)C(O)C2OC3OC12OC3(C)C1CO1 (stereo not drawn)
inactive: dose: 1.5 mg/kg/injection, schedule: Q01DX009 (ip), vehicle: Klucel (hydroxypropylcellulose) (HPC) 96 % of control | dose: 3.0 mg/kg/injection, schedule: Q01DX009 (ip), vehicle: Klucel (hydroxypropylcellulose) (HPC) 113 % of control | dose: 6.0 mg/kg/injection, schedule: Q01DX009 (ip), vehicle: Klucel (hydroxypropylcellulose) (HPC) 91 % of control | dose: 12.0 mg/kg/injection, schedule: Q01DX009 (ip), vehicle: Klucel (hydroxypropylcellulose) (HPC) 97 % of control | dose: 24.0 mg/kg/injection, schedule: Q01DX009 (ip), vehicle: Klucel (hydroxypropylcellulose) (HPC) 100 % of control

CCOC(=O)c1c[nH]c2ccc3[nH]cnc3c2c1=O
inactive: [7] 95 % of control | [8] 99 % of control | [9] 95 % of control

COc1cc(Br)c(CC(NC=O)c2ccc3c(c2)OCO3)cc1OC (stereo not drawn)
inactive: dose: 15.0 mg/kg/injection, schedule: Q01DX005 (ip), vehicle: saline with Tween-80 107 % of control | dose: 30.0 mg/kg/injection, schedule: Q01DX005 (ip), vehicle: saline with Tween-80 104 % of control | [1] 89 % of control and 94 % of control

CCOC(=O)c1ccc(-n2c(C)nc3ccc(Br)cc3c2=O)cc1
inactive: [1] 98 % of control | [2] 95 % of control | [3] 100 % of control

O=C1C=C2CCCCCCCCCCC2CC1 (stereo not drawn)
inactive: [7] 103 % of control | [8] 92 % of control | [9] 92 % of control

CC1=CC(C/C(C)=C/COc2ccc3ccc(=O)oc3c2)OC1=O (stereo not drawn)
inactive: dose: 12.5 mg/kg/injection, schedule: Q01DX005 (ip), vehicle: Klucel (hydroxypropylcellulose) (HPC) 87 % of control | dose: 25.0 mg/kg/injection, schedule: Q01DX005 (ip), vehicle: Klucel (hydroxypropylcellulose) (HPC) 90 % of control | [7] 97 % of control

Cc1c2oc3c(C)ccc(C(=O)NC(C(=O)NC(C(=O)N(C)C)C(C)C)C(C)O)c3nc-2c(C(=O)NC(C(=O)NC(C(=O)N(C)C)C(C)C)C(C)O)c(N)c1=O (stereo not drawn)
inactive: dose: 0.05 mg/kg/injection, schedule: Q01DX009 (ip), vehicle: water 101 % of control | dose: 0.1 mg/kg/injection, schedule: Q01DX009 (ip), vehicle: water 100 % of control | dose: 0.2 mg/kg/injection, schedule: Q01DX009 (ip), vehicle: water 100 % of control | dose: 0.4 mg/kg/injection, schedule: Q01DX009 (ip), vehicle: water 108 % of control | dose: 0.8 mg/kg/injection, schedule: Q01DX009 (ip), vehicle: water 110 % of control | dose: 1.6 mg/kg/injection, schedule: Q01DX009 (ip), vehicle: water 99 % of control and 106 % of control | dose: 3.2 mg/kg/injection, schedule: Q01DX009 (ip), vehicle: water 101 % of control | dose: 6.4 mg/kg/injection, schedule: Q01DX009 (ip), vehicle: water 101 % of control | dose: 12.8 mg/kg/injection, schedule: Q01DX009 (ip), vehicle: water 106 % of control

COC(=O)Nc1c2ccccc2nc2c1c(C)c(C)c1ccccc12
inactive: dose: 100.0 mg/kg/injection, schedule: Q01DX001 (ip), vehicle: saline with Tween-80 88 % of control | dose: 200.0 mg/kg/injection, schedule: Q01DX001 (ip), vehicle: saline with Tween-80 88 % of control | dose: 400.0 mg/kg/injection, schedule: Q01DX001 (ip), vehicle: saline with Tween-80 95 % of control

C[N+]1(C)CCC(=O)C(c2ccccc2)C1 (stereo not drawn)
inactive: [10] 113 % of control | [11] 113 % of control

C=C1C(=O)CCC1/C=C\C (stereo not drawn)
inactive: dose: 12.5 mg/kg/injection, schedule: Q01DX005 (ip), vehicle: saline with Tween-80 111 % of control | dose: 25.0 mg/kg/injection, schedule: Q01DX005 (ip), vehicle: saline with Tween-80 110 % of control | [12] 99 % of control

CCOP(=O)(OCC)C(N)Cc1c[nH]c2ccccc12 (stereo not drawn)
inactive: [13] 101 % of control | dose: 100.0 mg/kg/injection, schedule: Q01DX005 (ip), vehicle: saline 104 % of control

COc1cccc2ccc(-c3ccccc3)[s+]c12
inactive: dose: 60.0 mg/kg/injection, schedule: Q01DX005 (ip), vehicle: Klucel (hydroxypropylcellulose) (HPC) 97 % of control | dose: 120.0 mg/kg/injection, schedule: Q01DX005 (ip), vehicle: Klucel (hydroxypropylcellulose) (HPC) 98 % of control | dose: 240.0 mg/kg/injection, schedule: Q01DX005 (ip), vehicle: Klucel (hydroxypropylcellulose) (HPC) 104 % of control

O=C(Nc1nnc(-c2ccccc2)s1)c1cc(=O)c2ccccc2o1
inactive: [12] 93 % of control | dose: 100.0 mg/kg/injection, schedule: Q01DX005 (ip), vehicle: saline with Tween-80 96 % of control | dose: 200.0 mg/kg/injection, schedule: Q01DX005 (ip), vehicle: saline with Tween-80 92 % of control

O=C(Cl)C=Cc1ccc([N+](=O)[O-])cc1 (mixture of isomers)
inactive: [4] 104 % of control | [5] 94 % of control

COCCOCCOCCOCCOCCOCCOCCOC(=O)Nc1ccc(C)c(NC(=O)OCCOCCOCCOCCOCCOCCOCCOC)c1
inactive: [5] 109 % of control | [6] 109 % of control | dose: 400.0 mg/kg/injection, schedule: Q01DX009 (ip), vehicle: saline 95 % of control

Clc1cc2c(nn1)Nc1ccccc1S2
inactive: dose: 12.5 mg/kg/injection, schedule: Q01DX009 (ip), vehicle: saline with Tween-80 97 % of control | dose: 25.0 mg/kg/injection, schedule: Q01DX009 (ip), vehicle: saline with Tween-80 96 % of control | dose: 50.0 mg/kg/injection, schedule: Q01DX009 (ip), vehicle: saline with Tween-80 99 % of control and 87 % of control | dose: 100.0 mg/kg/injection, schedule: Q01DX009 (ip), vehicle: saline with Tween-80 98 % of control | dose: 200.0 mg/kg/injection, schedule: Q01DX009 (ip), vehicle: saline with Tween-80 87 % of control

CCNc1ncnc2c1cnn2C
inactive: dose: 25.0 mg/kg/injection, schedule: Q01DX009 (ip), vehicle: saline sonified 109 % of control | dose: 50.0 mg/kg/injection, schedule: Q01DX009 (ip), vehicle: saline sonified 113 % of control | dose: 50.0 mg/kg/injection, schedule: Q04DX003 (ip), vehicle: saline sonified 112 % of control | dose: 100.0 mg/kg/injection, schedule: Q04DX003 (ip), vehicle: saline sonified 104 % of control | dose: 200.0 mg/kg/injection, schedule: Q04DX003 (ip), vehicle: saline sonified 116 % of control

CN(C)CCCNC(=O)c1ccc2c(c1O)C(=O)c1ccccc1C2=O
inactive: dose: 12.5 mg/kg/injection, schedule: Q01DX005 (ip), vehicle: saline 105 % of control | dose: 25.0 mg/kg/injection, schedule: Q01DX005 (ip), vehicle: saline 109 % of control | [13] 114 % of control
